Bounds are passed on as bounds.

One data set concerns H3K27me3 in Hela cells. The data set is described as follows: H3K27me3 Alpha Hela Assay (AlphaLISA). The format is cell-based. How it is done:
H3K27me3 Alpha Hela Assay (AlphaLISA). Ten different doses of each test compound (in a series of 3-fold dilutions) were plated in duplicate 384-well tissue culture treated plates (Catalog #6007680; Perkin Elmer, Waltham, Mass.). Hela cells grown in culture were trypsinized and counted using a Countess® cell counter (Catalog #C10281; Life Technologies, Grand Island, N.Y.). Cell were diluted to 67,000 cells per mL in10% DMEM (Catalog #10569-010 Life Technologies, Grand Island, N.Y.) and 15 μL (1,000 cells) were plated into each well using the Biotek MicroFlo™ Select Dispenser (BioTek Instruments, Inc. Vermont, USA),) of the 384-well plate. Plates were incubated at 37° C./5% CO2 for 72 hrs. One of the duplicate plates was processed for HeLa assay and the other for viability. 5 μL of Cell-Histone Lysis buffer (1×) (Catalog #AL009F1 Perkin Elmer; Waltham, Mass.) per well was added to the plate processed for AlphaLISA and the plate was incubated at RT for 30 minutes on a plate shaker with low speed (Model# 4625-Q Thermo Scientific; Waltham, Mass.). Then, 10 μL per well Histone Extraction buffer (catalog #AL009F2; Perkin Elmer; Waltham, Mass.) was added and the plate further incubated at RT for 20 min on plate shaker with low speed. Next, 10 μL of 5× mix of anti-K27me3 acceptor beads plus Biotinylated anti-Histone H3 (C-ter) Antibody (diluted to 3 nM final) (Catalog #AL118 Perkin Elmer; Waltham, Mass.) was added in each well. Dilution of the acceptor beads and anti-Histone H3 was done in 1× Histone Detection buffer (Catalog #AL009F3 Perkin Elmer; Waltham, Mass.) which was produced by diluting the 10× stock provided. The plate was sealed with an aluminum plate sealer and incubated at 23° C. for 60 min. Next, 10 μL 5× solution of Streptavidin Donor beads were added (Catalog #6760002 Perkin Elmer; Waltham, Mass.) (20 μg/mL final in 1× Histone Detection Buffer), =plate was sealed with Aluminum plate sealer and incubated at 23° C. for 30 min. The plates were then read using an EnVision-Alpha Reader (model #2104 Perkin Elmer; Waltham, Mass.). […]
Background: In Alpha technology, singlet oxygen from a donor bead excites a nearby acceptor bead.

A further data set has as its system Karpas-422 cell lines. The data set is described as follows: Karpas-422 viability assay (Cell Titer-Glo, Day 8). The class given is cell-based. Particulars: Cell Titer-Glo on Day 8. As to the method:
Karpas-422 cell lines were obtained from DSMZ (Braunschweig, Germany) and were grown in RPMI-1640 media. All media contained 10% fetal bovine serum (FBS) and 1% penicillin/streptomycin (Invitrogen). 20K cells per well were plated onto 96 well compound coated plates. Cells were split and seeded at original plating density (based on the DMSO well counts) every 4 days into plates containing fresh EZH2 inhibitors. Relative cell numbers were assessed by Cell Titer-Glo luminescent cell viability assay (Promega) on Day 8. GraphPad Prism 5 was used for curve fitting and GI50 values were reported.

Data set [1] is described as follows: Cellular permeability in MDCK assay. The format is in vitro ADME. Particulars: dog, pH 7.4, MDCK II, with P-gp inhibitor GF120918 10 μM; for efflux ratio at 2.5 h, 2 μM: Papp(BA)/Papp(AB). As to the method: Cell culture: MDCK II cells (obtained from Piet Borst at the Netherlands Cancer Institute) were seeded onto […] (PET) in 96-well BD insert systems at 2.5×10^5 cells/mL until to 4-7 days for confluent cell monolayer formation.
Experimental procedure: Test and reference compounds (nadolol, metoprolol and digoxin) were diluted with transport buffer (HBSS with 10mM Hepes, pH7.4) from stock solution to a concentration of 2 μM (<1% DMSO) and applied to the apical (A) or basolateral (B) side of the cell monolayer. Permeation of the test compounds from A to B direction or B to A direction was determined in duplicate with P-gp inhibitor (GF120918, 10 μM). Digoxin was tested at 10 μM from A to B direction or B to A direction with/without P-gp inhibitor (GF120918, 10 μM) as well, while nadolol and metoprolol were tested at 2 μM in A to B direction without P-gp inhibitor (GF120918, 10 μM) in duplicate. The plate was incubated for 2.5 hours in CO2 incubator at 37±1° C., with 5% CO2 at saturated humidity without shaking. In addition, the efflux ratio of each compound was also determined. Test and reference compounds were quantified by LC/MS/MS analysis based on the peak area ratio of analyte/IS. After transport assay, Lucifer yellow rejection assay are applied to determine the cell monolayer integrity. Buffers are removed from both apical and basolateral chambers, followed by the addition of 75 μL of 100 μM lucifer yellow in transport buffer and 250 μL transport buffer in apical and basolateral chambers, respectively. The plate is incubated for 30 minutes at 37° C. with 5% CO2 and 95% relative humidity without shaking. After 30 minutes incubation, 20 μL of lucifer yellow samples are taken from the apical sides, followed by the addition of 60 μL of Transport Buffer. And then 80 μL of lucifer yellow samples are taken from the basolateral sides. The relative fluorescence unit (RFU) of lucifer yellow is measured at 425/528 nm (excitation/emission) with a Molecular Device M2e plate reader.
Data analysis: The apparent permeability coefficient Papp (cm/s) was calculated using the equation: Papp=(dCr/dt)×Vr/(A×C0) Where dCr/dt is the cumulative concentration of compound in the receiver chamber as a function of time (μM/s); Vr is the solution volume in the receiver chamber (0.075 mL on the apical side, 0.25 mL on the basolateral side); A is the surface area for the transport, i.e. 0.0804 cm2 for the area of the monolayer; C0 is the initial concentration in the donor chamber (μM).
The efflux ratio was calculated using the equation: Efflux Ratio=Papp(BA)/Papp(AB) Percent recovery was calculated using the equation: % Recovery=100×[(Vr×Cr)+(Vd×Cd)]/(Vd×C0) Where Vd is the volume in the donor chambers (0.075 mL on the apical side, 0.25 mL on the basolateral side); Cd and Cr are the final concentrations of transport compound in donor and receiver chambers, respectively.
Percent of lucifer yellow in basolateral well is calculated using the equation:
[formula] where RFUApical and RFUBasolateral are the relative fluorescence unit values of lucifer yellow in the apical and basolateral wells, respectively; VApical and VBasolateral are the volume of apical and basolateral wells (0.075 mL and 0.25 mL), respectively. Percent lucifer yellow should be less than 2.

In a further data set the target is PRC2 containing wt EZH2 (Homo sapiens (Human), UniProt Q15910). The data set is described as follows: EZH2 biochemical assay (IC50), 3H-SAM incorporation into biotinylated H3 peptide. To be noted: 30 pM PRC2 with wt EZH2, 3-5 h pre-incubation. As to the method:
EZH2 biochemical assay (IC50): Compound potencies were assessed through incorporation of ^3H-SAM into a biotinylated H3 peptide. Specifically, 30 pM PRC2 containing wt EZH2 (pentameric complex prepared in-house) was pre-incubated with 450 nM SAM, 450 nM ^3H-SAM, 2 μM H3K27me3 activating peptide (H2N-RKQLATKAAR(Kme3)SAPATGGVKKP-amide) and compounds (as 10 point duplicate dose response titrations in DMSO, final assay 0.8% DMSO (v/v)) for 3-5 h in 50 mM Tris (pH 8.5), 1 mM DTT, 0.07 mM Brij-35, 0.1% BSA, and 0.8% DMSO in a total volume of 12.5 μl. Reaction was initiated with biotinylated H3 substrate peptide (H2N-RKQLATKAAR(Kmel)SAPATGGVKKP-NTPEGBiot) as a 2 μM stock in 12.5 μl of buffer and allowed to react at room temperature for 18-22 h. Quenching was accomplished by addition of 20 μl of STOP solution (50 mM Tris (pH 8.5), 200 mM EDTA, 2 mM SAH). 35 μl of the quenched solution was transferred to streptavidin coated FlashPlates (PerkinElmer), incubated 1-2 h, washed, and read in a TopCount Reader (PerkinElmer). IC50s were calculated in Genedata Screener using non-linear least square four parameter fits, where the four parameters were IC50, Hill slope, pre-transitional baseline (0% INH), and post-transitional baseline (100% INH).

The mark [2] stands for this setting: Homo sapiens, KARPAS-422, 192 h.

PRC2 containing wt EZH2, sequence (Q15910 whole entry): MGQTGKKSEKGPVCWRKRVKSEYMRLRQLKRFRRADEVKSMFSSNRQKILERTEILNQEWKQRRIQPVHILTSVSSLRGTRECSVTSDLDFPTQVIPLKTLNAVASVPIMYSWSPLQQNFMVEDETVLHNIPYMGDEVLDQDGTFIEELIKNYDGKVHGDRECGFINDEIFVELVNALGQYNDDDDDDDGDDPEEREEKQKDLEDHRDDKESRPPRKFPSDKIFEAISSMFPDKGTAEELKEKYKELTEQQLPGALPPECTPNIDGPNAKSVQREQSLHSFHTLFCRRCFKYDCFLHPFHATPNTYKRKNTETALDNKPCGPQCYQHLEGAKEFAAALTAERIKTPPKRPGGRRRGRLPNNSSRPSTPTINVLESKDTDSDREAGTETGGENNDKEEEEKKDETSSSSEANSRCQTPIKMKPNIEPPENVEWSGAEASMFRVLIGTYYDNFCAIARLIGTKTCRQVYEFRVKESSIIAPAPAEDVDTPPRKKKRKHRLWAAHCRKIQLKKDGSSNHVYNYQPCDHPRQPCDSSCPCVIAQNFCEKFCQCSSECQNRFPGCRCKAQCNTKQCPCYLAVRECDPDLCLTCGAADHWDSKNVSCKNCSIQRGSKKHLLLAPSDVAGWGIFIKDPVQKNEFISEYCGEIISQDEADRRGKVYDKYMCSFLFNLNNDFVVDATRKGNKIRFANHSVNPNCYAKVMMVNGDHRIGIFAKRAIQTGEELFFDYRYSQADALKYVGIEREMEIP
PRC2 containing wt EZH2, sequence (O75530 whole entry partner): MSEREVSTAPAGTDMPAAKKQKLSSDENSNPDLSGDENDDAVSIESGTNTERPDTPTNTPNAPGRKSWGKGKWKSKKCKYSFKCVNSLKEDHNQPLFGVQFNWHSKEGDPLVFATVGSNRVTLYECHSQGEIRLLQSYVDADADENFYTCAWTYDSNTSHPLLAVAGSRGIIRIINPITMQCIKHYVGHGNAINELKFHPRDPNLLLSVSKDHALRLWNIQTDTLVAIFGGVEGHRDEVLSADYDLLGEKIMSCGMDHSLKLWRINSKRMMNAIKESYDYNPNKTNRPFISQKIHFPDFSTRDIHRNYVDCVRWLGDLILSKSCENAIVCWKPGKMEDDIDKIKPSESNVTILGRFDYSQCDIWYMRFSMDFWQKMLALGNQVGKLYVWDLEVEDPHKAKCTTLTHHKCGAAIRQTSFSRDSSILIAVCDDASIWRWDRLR
PRC2 containing wt EZH2, sequence (Q15022 whole entry partner): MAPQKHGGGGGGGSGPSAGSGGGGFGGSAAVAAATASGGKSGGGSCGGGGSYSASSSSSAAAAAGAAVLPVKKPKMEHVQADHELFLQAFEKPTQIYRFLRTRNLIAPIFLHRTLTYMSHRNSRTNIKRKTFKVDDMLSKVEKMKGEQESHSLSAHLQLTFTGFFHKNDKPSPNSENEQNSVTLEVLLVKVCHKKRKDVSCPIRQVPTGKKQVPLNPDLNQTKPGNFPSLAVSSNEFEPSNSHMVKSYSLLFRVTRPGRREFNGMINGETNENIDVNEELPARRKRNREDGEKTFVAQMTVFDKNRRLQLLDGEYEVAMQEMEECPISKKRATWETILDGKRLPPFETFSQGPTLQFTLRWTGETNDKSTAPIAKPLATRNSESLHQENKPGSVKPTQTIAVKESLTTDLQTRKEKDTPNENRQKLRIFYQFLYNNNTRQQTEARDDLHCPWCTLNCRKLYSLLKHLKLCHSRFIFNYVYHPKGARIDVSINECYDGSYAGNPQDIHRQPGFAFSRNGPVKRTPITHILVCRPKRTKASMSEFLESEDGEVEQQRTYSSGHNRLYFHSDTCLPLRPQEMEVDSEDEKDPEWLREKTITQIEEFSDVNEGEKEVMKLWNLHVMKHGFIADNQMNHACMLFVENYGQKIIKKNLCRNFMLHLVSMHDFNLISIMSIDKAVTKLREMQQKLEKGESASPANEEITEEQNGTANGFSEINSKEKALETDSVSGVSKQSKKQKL
PRC2 containing wt EZH2, sequence (Q09028 whole entry partner): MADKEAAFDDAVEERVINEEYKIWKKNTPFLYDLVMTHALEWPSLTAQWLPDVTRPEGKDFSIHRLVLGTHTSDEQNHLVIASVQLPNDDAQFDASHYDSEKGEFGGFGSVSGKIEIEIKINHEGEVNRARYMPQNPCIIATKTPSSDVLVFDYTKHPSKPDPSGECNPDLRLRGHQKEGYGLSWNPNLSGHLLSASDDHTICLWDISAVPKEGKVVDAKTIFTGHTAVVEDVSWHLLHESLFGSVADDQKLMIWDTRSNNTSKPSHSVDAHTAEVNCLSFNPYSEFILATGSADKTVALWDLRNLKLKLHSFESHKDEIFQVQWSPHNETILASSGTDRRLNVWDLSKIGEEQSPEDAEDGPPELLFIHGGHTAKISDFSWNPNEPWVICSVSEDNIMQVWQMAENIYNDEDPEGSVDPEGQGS
PRC2 containing wt EZH2, sequence (Q6ZN18 whole entry partner): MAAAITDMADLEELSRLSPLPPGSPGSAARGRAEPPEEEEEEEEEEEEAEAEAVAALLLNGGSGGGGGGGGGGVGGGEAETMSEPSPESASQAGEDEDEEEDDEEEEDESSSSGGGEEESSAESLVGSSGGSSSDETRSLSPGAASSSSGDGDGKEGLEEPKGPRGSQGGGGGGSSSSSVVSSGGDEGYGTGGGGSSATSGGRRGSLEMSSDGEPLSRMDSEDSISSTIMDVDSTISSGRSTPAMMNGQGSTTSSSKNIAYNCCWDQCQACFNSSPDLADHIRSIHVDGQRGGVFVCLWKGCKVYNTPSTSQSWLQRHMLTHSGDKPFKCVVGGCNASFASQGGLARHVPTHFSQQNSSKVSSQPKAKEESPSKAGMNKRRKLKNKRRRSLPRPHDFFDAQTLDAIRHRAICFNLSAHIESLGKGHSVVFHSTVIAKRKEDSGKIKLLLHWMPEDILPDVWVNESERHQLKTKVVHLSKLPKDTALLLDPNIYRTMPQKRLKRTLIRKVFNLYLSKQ

The compound `CSc1cc(Cl)[nH]c(=O)c1CNC(=O)c1cc(Cl)c2c(c1C)O[C@@](C)([C@H]1CC[C@H](N(C)C)CC1)O2` [Example 3, (R)-7-chloro-N-((6-chloro-4-(methylthio)-2-oxo-1,2-dihydropyridin-3-yl)methyl)-2-(trans-4-(dimethylamino)cyclohexyl)-2,4-dimethylbenzo[d][1,3]dioxole-5-carboxamide] gave an EC50 with H3K27me3 in Hela cells (Homo sapiens, HeLa, 72 h) of 2.4 nM. In the data set with Karpas-422 cell lines (setting [2]), the GI50 amounted to 29 nM. Besides, in data set [1], the apparent permeability coefficient (Papp) at 2.5 h, 2 μM was found to be 3.7 ×10⁻⁶ cm/s and the efflux ratio at 2.5 h, 2 μM was found to be 1.2. The compound further returned a half-maximal inhibitory concentration (IC50) at PRC2 containing wt EZH2 of 0.37 nM.
Turning to `CSc1cc(C)[nH]c(=O)c1CNC(=O)c1cc(Cl)c2c(c1C)OC(C)(C1CCC(NC3(C(F)(F)F)COC3)CC1)O2` (single isomer, unassigned) [Example 6-Enantiomer 2], the EC50 with H3K27me3 in Hela cells (72 hrs) amounted to 4.2 nM. The GI50 with Karpas-422 cell lines stood at 53 nM. Moreover, the IC50 at PRC2 containing wt EZH2 is 0.14 nM.
For `CSc1cc(C)[nH]c(=O)c1CNC(=O)c1cc(Cl)c2c(c1C)OC(C)(C1CCC(N3CC(F)(F)C3)CC1)O2` (single isomer, unassigned) [Example 7-Enantiomer 1], the IC50 against PRC2 containing wt EZH2 is 8.6 nM.
Take `Cc1cc(Cl)c(CNC(=O)c2cc(Cl)c3c(c2C)OC(C)(C2CCN(CC(F)(F)F)CC2)O3)c(=O)[nH]1` (single isomer, unassigned) [Example 16-Enantiomer 1, 7-chloro-N-((4-chloro-6-methyl-2-oxo-1,2-dihydropyridin-3-yl)methyl)-2,4-dimethyl-2-(1-(2,2,2-trifluoroethyl)piperidin-4-yl)benzo[d][1,3]dioxole-5-carboxamide]: the response in the data set on H3K27me3 in Hela cells (72 hrs) was half-maximal at 22 nM (EC50). At PRC2 containing wt EZH2, the 50% inhibitory concentration (IC50) was determined as 0.31 nM.
As to `CSc1cc(C)[nH]c(=O)c1CNC(=O)c1cc(Cl)c2c(c1C)OC(C)(C1CCC(NC3(C(F)(F)F)COC3)CC1)O2` (single isomer, unassigned) [Example 6-Enantiomer 1, 7-chloro-2,4-dimethyl-N-((6-methyl-4-(methylthio)-2-oxo-1,2-dihydropyridin-3-yl)methyl)-2-(4-((3-(trifluoromethyl)oxetan-3-yl)amino)cyclohexyl)benzo[d][1,3]dioxole-5-carboxamide], a half-maximal response with H3K27me3 in Hela cells (72 hrs) (EC50) required 39 nM. The compound further registered a 50% growth inhibitory concentration (GI50) with Karpas-422 cell lines of 720 nM. This compound came in with a concentration for half-maximal inhibition (IC50) at PRC2 containing wt EZH2 of 1.8 nM.
`CSc1cc(C)[nH]c(=O)c1CNC(=O)c1cc(Cl)c2c(c1C)OC(C)(C1CCC(NC3(CF)COC3)CC1)O2` (single isomer, unassigned) [Example 11 (geometric isomer 2)] returned an EC50 in the data set on H3K27me3 in Hela cells (72 hrs) of 1.7 nM. This compound came in with an IC50 at PRC2 containing wt EZH2 of 0.18 nM.
`CSc1cc(Cl)[nH]c(=O)c1CNC(=O)c1cc(Cl)c2c(c1C)OC(C)(C1CCC(N3CC(OC(F)F)C3)CC1)O2` (single isomer, unassigned) [Example 2]: the midpoint of the response in the data set with H3K27me3 in Hela cells (Homo sapiens, HeLa, 72 h), the EC50, lay at 15 nM. Besides, in the data set with Karpas-422 cell lines (setting [2]), the GI50 stood at 250 nM. This compound had an IC50 at PRC2 containing wt EZH2 of 1.5 nM.
On to `CSc1cc(C)[nH]c(=O)c1CNC(=O)c1cc(Cl)c2c(c1C)OC(C)(C1CCN(CC(F)(F)F)CC1)O2` (single isomer, unassigned) [Example 14-Enantiomer 1, 7-chloro-2,4-dimethyl-N-((6-methyl-4-(methylthio)-2-oxo-1,2-dihydropyridin-3-yl)methyl)-2-(1-(2,2,2-trifluoroethyl)piperidin-4-yl)benzo[d][1,3]dioxole-5-carboxamide], for which the 50% effective concentration (EC50) in the data set with H3K27me3 in Hela cells (72 hrs) came out at 1.4 nM. Further, 0.037 nM corresponded to half-maximal inhibition at PRC2 containing wt EZH2 (IC50).
Compound `CSc1cc(C)[nH]c(=O)c1CNC(=O)c1cc(Cl)c2c(c1C)OC(C)(C1CCN(CC(F)(F)F)CC1)O2` (single isomer, unassigned) [Example 14-Enantiomer 2, 7-chloro-2,4-dimethyl-N-((6-methyl-4-(methylthio)-2-oxo-1,2-dihydropyridin-3-yl)methyl)-2-(1-(2,2,2-trifluoroethyl)piperidin-4-yl)benzo[d][1,3]dioxole-5-carboxamide] had a concentration for a half-maximal effect (EC50) in the data set with H3K27me3 in Hela cells (72 hrs) of 210 nM. In addition, in data set [1], the Papp at 2.5 h, 2 μM is 13 ×10⁻⁶ cm/s and the efflux ratio at 2.5 h, 2 μM was determined as 0.56. Moreover, on PRC2 containing wt EZH2, the IC50 was 7 nM.
As to `Cc1cc(Cl)c(CNC(=O)c2cc(Cl)c3c(c2C)OC(C)(C2CCN(CC(F)(F)F)CC2)O3)c(=O)[nH]1` (single isomer, unassigned) [Example 16-Enantiomer 2, 7-chloro-N-((4-chloro-6-methyl-2-oxo-1,2-dihydropyridin-3-yl)methyl)-2,4-dimethyl-2-(1-(2,2,2-trifluoroethyl)piperidin-4-yl)benzo[d][1,3]dioxole-5-carboxamide], in the data set with H3K27me3 in Hela cells (72 hrs), the EC50 is greater than 300 nM. On PRC2 containing wt EZH2, this compound registered an IC50 greater than 10 nM.

The EC50 is the concentration needed to bring the measured effect to its halfway point. The low end stands for greater potency, the high end for weaker potency. The term GI50 denotes the concentration at which growth is held to half of that of the control. Higher therefore signals lower sensitivity of the cells. What is called Papp is a coefficient for how fast a substance crosses the barrier. The term efflux ratio denotes a quotient of directional permeabilities that is used to spot active efflux. In general, IC50 refers to the concentration that gives 50% inhibition.
